Experimental data published in patent US20060063786A1 (priority 2002, published 2006).
Where two headings read alike, the source gives them in different places.

System: Pyricularia oryzae
Format: in vivo
Conditions: individual active compound, protective, inoculated next day, rated after 6 days

Row | Compound | Efficacy in % of the untreated control (1 ppm in the spray liquor) | Efficacy in % of the untreated control (4 ppm in the spray liquor) | Efficacy in % of the untreated control (0.25 ppm in the spray liquor)
1 | CC1CCN(c2c(-c3c(F)cc(F)cc3F)c(Cl)nc3ncnn23)CC1 [II, 5-chloro-7-(4-methylpiperidin-1-yl)-6-(2,4,6-trifluorophenyl)-[1,2,4]triazolo[1,5-a]pyrimidine] | 3 % of the untreated control | 52 % of the untreated control | 
2 | CC1CCN(c2c(-c3c(F)cccc3Cl)c(Cl)nc3ncnn23)CC1 [A] | 0 % of the untreated control | 28 % of the untreated control | 
3 | C[C@H](Nc1c(-c2c(F)cc(F)cc2F)c(Cl)nc2ncnn12)C(F)(F)F [B] | 28 % of the untreated control | 52 % of the untreated control | 
4 | CNC(=O)/C(=N/OC)c1ccccc1CO/N=C(C)/C(=N/OC)C(/C)=N/OC [I (orysastrobin), 2-[2-(2,3-bismethoxyimino-1-methylbutylideneamino-oxymethyl)phenyl]-2-methoxyimino-N-methylacetamide] |  | 28 % of the untreated control | 0 % of the untreated control
